Data: patent US20030206892A1, “Methods of modulating activity of DXR” (priority 2000, published 2003)
Converted amounts (≈) assume the structure as drawn.

Assays:
Type in all cases: cell-based
E. coli DH5α = assay: E. coli DXR MIC experiment, parent strain; conditions: Escherichia coli, LB, overnight at 37° C., read-out: E. coli DXR MICs, E. coli DH5α
Procedure: (§1) The MIC protocol used techniques well known to those skilled in the art. All strains were grown overnight in LB with appropriate selection. The compounds are mixed or put in contact with DMSO. Fifty μl of LB was placed in each well of the microtiter plate, except in Column 1. To obtain a top concentration of 256 μl/mil of compound after the inoculum is added: 10 μl of a 5.12 mg/ml stock is mixed with 90 μl of LB. This mixture was placed in the first well of its assigned row of a 96-well plate. The compound was then serially diluted 1:2 by taking 50 μl from the first well in the row and mixing it with the second well of the same row, Column 2. Then, 50 μl from that well was mixed with the third well in the row, Column 3 and so on until Column 11. Fifty μl of the serial dilution from Column 11 was discarded. The final well in the row, column 12, was the growth control. No compound was placed in column 12. The overnight culture was diluted 1:50 into LB. Fifty μl of this culture dilution was added to every well of the microtiter plate. This dilutes the inoculum and drug 1:2. The final inoculum was approximately 1×10^5 cells/ml. The 96-well pates are then incubated overnight at 37° C.

[1] = test system: E. coli DH5α + (pET28::dxr), H. influenzae dxr; assay: H. influenzae DXR MIC experiment, strain expressing H. influenzae DXR
Procedure: as §1, with “Fifty μl of LB was placed in each well of the microtiter plate, except in Column 1. To obtain a top concentration of 256 μl/mil of compound after the inoculum is added: 10 μl of a 5.12 mg/ml stock is mixed with 90 μl of LB.” left out, “The overnight culture was diluted 1:50 into LB.” left out

E. coli DH5α + (pET28) = assay: E. coli DXR MIC experiment, empty vector strain; conditions: Escherichia coli, LB, overnight at 37° C., read-out: E. coli DXR MICs, E. coli DH5α + (pET28)
Procedure: as §1

[2] = test system: E. coli DH5α + (pET28::dxr), E. coli dxr; assay: E. coli DXR MIC experiment, strain overexpressing E. coli DXR
Procedure: as §1

SMILES | MIC (E. coli DH5α) [µg/mL] | MIC increase for cells expressing H. influenzae DXR ([1]; E. coli cells (DH5α) expressing H. influenzae DXR) [fold] | MIC ([1]; Escherichia coli, read-out: H. influenzae DXR MICs, E. coli DH5α + (pET28::dxr)) [µg/mL] | MIC (E. coli DH5α + (pET28)) [µg/mL] | MIC increase for cells overexpressing E. coli DXR ([2]; E. coli cells (DH5α) overexpressing E. coli DXR) [fold] | MIC ([2]; Escherichia coli, read-out: E. coli DXR MICs, E. coli DH5α + (pET28::dxr)) [µg/mL]
CC1(C)S[C@@H]2[C@H](NC(=O)[C@H](N)c3ccc(O)cc3)C(=O)N2[C@H]1C(=O)O [Amoxicillin] | 16 (≈ 43.8 µM) |  |  |  |  | 
O=CN(O)CCCP(=O)(O)O [Fosmidomycin] | 16 (≈ 87.4 µM) | 16 | 256 | 16 | 8 | 128
